Measured values as given in patent US4435392A, “2,5-Benzodiazocine derivatives and salts thereof, as well as pharmaceutical agent comprising as effective component at least one of the derivatives and salts” (Sanwa Kagaku Kenkyusho Co. Ltd., priority 1982, dated 1984).

What was measured:
dd-type male mice [1] = test: Effect on Sleep (pentobarbital sleeping time); format: in vivo; settings: pentobarbital 40 mg/kg
Wister type male rats = test: Antipyretic Action (rectal body temperature); format: in vivo
Description: Wister type male rats of 100 to 140 g were classified into groups, each having 4 to 5 rats. The rats were abstrained from food for 1 day and then each rat was entered in each cage. The body temperature was measured under a constant room temperature through the rectum. This body temperature measurement was carried out in 3 times before a dosage of agents as well as after lapsed 30, 60, 90, 120 and 150 minutes from the dosage.
Judgements have been given based on following 5 measures.

Acute Toxity, rat = settings: in vivo
Description: (§1) The dd-type 5 weeks male mice of 21 to 26 g and Wister type 5 weeks male rats of 110 to 150 g were classified into groups, each having 10 mice or rats. After having given testing agents to the mice and rats, general conditions, number of deaths in each day and body weight changes have been observed over 7 days. An LD50 value was calculated based on total number of deaths during the 7 days testing time period, in accordance with the Richfield-Wilcoxson Method. The surviving animals were dissected to visually observe internal organs thereof.

dd-male mice [2] = test: Analgetic action, Acetic Acid Stretching Method; format: in vivo; settings: Mus musculus, po, orally given 30 minutes before acetic acid, hydrochloride
Description: (ii) Acetic Acid Stretching Method
The dd-male mice of 17 to 23 g were classified into groups, each having 10 mice, and 0.7% aqueous solution of acetic acid was dosed into abdominal cavity for each mouse in a ratio of 10 ml/kg and then a stretching condition was observed over 5 minutes of having lapsed 10 to 15 minutes from the dosage. The test was repeated 4 times to obtain total measured value and an inhibition ratio was measured from number of stretching actions. A judgement has been given in "Yes" or "No" system.
According to the Richfield and Wilcoxson Methods, ED50, LD50 and 95% confidence limit were calculated and compared the same for each testing agents and Control.
Each testing agent and control was orally given 30 minutes before the dosage of the acetic acid in a ratio of 100 mg/10 ml/kg.

Acute Toxity, mouse = settings: in vivo
Description: as §1

dd-type male mice [3] = test: Effect on Sleep (pentobarbital sleeping time); format: in vivo; settings: pentobarbital 40 mg/kg; remark: listed apart in the source
Description: The dd-type male mice of 16 to 24 g were classified into groups, each having 10 mice. To each mouse, a testing agent was dosed through abdominal cavity and after having lapsed 30 minutes from the dosage, 40 mg/kg of pentobarbital was also dosed through abdominal cavity to measure a time of sleeping period. The sleeping time in question designates a time period, wherein a facing reflex disappears. Judgements were given based on following 7 measures.

dd-male mice [4] = test: Analgetic action, Haffner's Method (tail root clamping); format: in vivo; settings: Mus musculus, ip, abdominal cavity, hydrochloride
Description: In accordance with a usual manner, dd-male mice of 14 to 22 g were classified into groups, each having 10 mice, compounds to be tested in various concentrations were given to each mouse and then clamped a tail root of the mouse with use of Koffer clamps in each time period of having lapsed 15, 30, 45 and 60 minutes from the dosage to measure an analgetic action of the compounds by judging as "negative" when the tested mouse cries or looks back.
Further the number of deaths was counted in each 10 mice group after having lapsed 2 hours from dosage of each testing agent into abdominal cavity and then ED50, LD50 and 95% confidence limit were calculated based on the Richfield and Wilcoxson Methods to compare the results obtained on the agents.

[5] = in abdominal cavity 50 mg/Kg, hydrochloride
[6] = intravenous injectional dosage, 7 days
[7] = ip, in abdominal cavity, 7 days
[8] = in abdominal cavity 25 mg/Kg (control)

With `COc1ccc(C2NCCN(CCCC(=O)c3ccc(F)cc3)Cc3ccccc32)cc1` (stereo not drawn) [Compound I-f, 5-[3-(p-fluorobenzoyl)propyl]-1,2,3,4,5,6-hexahydro-1-(p-methoxyphenyl)-2,5-benzodiazocine] the “Sleep Incrementing Action” value (dd-type male mice [1]; oral dosage 100 mg/Kg) was “+++ (sleeping time was extended by 60 minutes or more in comparison with control)”, the “Antipyretic Action” value (Wister type male rats; [5]) was “++ (showing decrease of 1° to 2 °C and obtaining at least one result of a notifiable difference of P<1%)” and the LD50 at 168 h (Acute Toxity, rat; [6]) was 19.8 mg/kg. The LD50 at 168 h (Acute Toxity, rat; oral dosage, 7 days) was 2890 mg/kg, the ED50 (dd-male mice [2]) was 11.5 mg/kg and the LD50 at 168 h (Acute Toxity, mouse; [6]) was 35.9 mg/kg. For the same molecule, the LD50 at 168 h (Acute Toxity, mouse; [7]) was 109 mg/kg, the LD50 at 168 h (Acute Toxity, mouse; oral dosage, 7 days) was 340 mg/kg and the “Sleep Incrementing Action” value (dd-type male mice [3]; in abdominal cavity 50 mg/Kg) was “+++ (sleeping time was extended by 60 minutes or more in comparison with control)”. For the same molecule, the ED50 (dd-male mice [4]) was 30.7 mg/kg.

With `COc1ccc(CCN2CCN(C)C(c3ccc(OC)cc3)c3ccccc3C2)cc1` (stereo not drawn) [Compound I-b, 5-(p-methoxyphenethyl)-1,2,3,4,5,6-hexahydro-1-(p-methoxyphenyl)-2-methyl-2,5-benzodiazocine] the “Sleep Incrementing Action” value (dd-type male mice [1]; oral dosage 100 mg/Kg) was “+++ (sleeping time was extended by 60 minutes or more in comparison with control)”, the “Antipyretic Action” value (Wister type male rats; [5]) was “++ (showing decrease of 1° to 2 °C and obtaining at least one result of a notifiable difference of P<1%)” and the LD50 at 168 h (Acute Toxity, rat; [6]) was 20.7 mg/kg. It also gave an LD50 at 168 h (Acute Toxity, rat; oral dosage, 7 days) of 4090 mg/kg, an ED50 (dd-male mice [2]) of 48.5 mg/kg and an LD50 at 168 h (Acute Toxity, mouse; [6]) of 33 mg/kg. For the same molecule, the LD50 at 168 h (Acute Toxity, mouse; [7]) was 124 mg/kg, the LD50 at 168 h (Acute Toxity, mouse; oral dosage, 7 days) was 623 mg/kg and the “Sleep Incrementing Action” value (dd-type male mice [3]; in abdominal cavity 50 mg/Kg) was “+++ (sleeping time was extended by 60 minutes or more in comparison with control)”. For the same molecule, the ED50 (dd-male mice [4]) was 26.2 mg/kg.

For `CN1CCOC(c2ccccc2)c2ccccc2C1` (stereo not drawn) [Nefopam, reference compound], the “Sleep Incrementing Action” value (dd-type male mice [1]; oral dosage 50 mg/Kg (control)) was “-- (sleeping time was shortened by 30 to 60 minutes in comparison with control)”, the “Antipyretic Action” value (Wister type male rats; [8]) was “++ (showing decrease of 1° to 2 °C and obtaining at least one result of a notifiable difference of P<1%)” and the LD50 at 168 h (Acute Toxity, rat; [6]) was 18 mg/kg. It also gave an LD50 at 168 h (Acute Toxity, rat; oral dosage, 7 days) of 595 mg/kg, an LD50 at 168 h (Acute Toxity, mouse; [6]) of 36.8 mg/kg and an LD50 at 168 h (Acute Toxity, mouse; [7]) of 72.4 mg/kg. The LD50 at 168 h (Acute Toxity, mouse; oral dosage, 7 days) was 356 mg/kg and the “Sleep Incrementing Action” value (dd-type male mice [3]; [8]) was “-- (sleeping time was shortened by 30 to 60 minutes in comparison with control)”.

For `CCOC(=O)/C=C/C(=O)Nc1ccc(CCN2CCNC(c3ccccc3)c3ccccc3C2)cc1` (stereo not drawn) [Compound I-e, [5(E)]-ethyl-4-[[4-[2-(1,2,3,4,5,6-hexahydro-1-phenyl-2,5-benzodiazocine)-5-yl]ethyl]phenyl]amino-4-oxo-2-butenoate], the “Sleep Incrementing Action” value (dd-type male mice [1]; oral dosage 100 mg/Kg) was “++ (sleeping time was extended by 30 to 60 minutes in comparison with control)”, the “Antipyretic Action” value (Wister type male rats; [5]) was “++ (showing decrease of 1° to 2 °C and obtaining at least one result of a notifiable difference of P<1%)” and the LD50 at 168 h (Acute Toxity, rat; po) was > 5000 mg/kg. The ED50 (dd-male mice [2]) was 61.1 mg/kg, the LD50 at 168 h (Acute Toxity, mouse; ip) was > 200 mg/kg and the LD50 at 168 h (Acute Toxity, mouse; po) was 938 mg/kg. The “Sleep Incrementing Action” value (dd-type male mice [3]; in abdominal cavity 50 mg/Kg) was “-- (sleeping time was shortened by 30 to 60 minutes in comparison with control)” and the ED50 (dd-male mice [4]) was 80.3 mg/kg.

For `COc1ccc(C2c3ccccc3CN(CCCC(=O)c3ccc(F)cc3)CCN2C)cc1` (stereo not drawn) [Compound I-a, 5-[3-(p-fluorobenzoyl)propyl]-1,2,3,4,5,6-hexahydro-1-(p-methoxyphenyl)-2-methyl-2,5-benzodiazocine], the “Sleep Incrementing Action” value (dd-type male mice [1]; oral dosage 100 mg/Kg) was “+++ (sleeping time was extended by 60 minutes or more in comparison with control)”, the “Antipyretic Action” value (Wister type male rats; [5]) was “++ (showing decrease of 1° to 2 °C and obtaining at least one result of a notifiable difference of P<1%)” and the LD50 at 168 h (Acute Toxity, rat; [6]) was 20 mg/kg. The LD50 at 168 h (Acute Toxity, rat; oral dosage, 7 days) was 3500 mg/kg, the ED50 (dd-male mice [2]) was 40.5 mg/kg and the LD50 at 168 h (Acute Toxity, mouse; [6]) was 30.1 mg/kg. The LD50 at 168 h (Acute Toxity, mouse; [7]) was 179 mg/kg, the LD50 at 168 h (Acute Toxity, mouse; oral dosage, 7 days) was 1500 mg/kg and the “Sleep Incrementing Action” value (dd-type male mice [3]; in abdominal cavity 50 mg/Kg) was “++ (sleeping time was extended by 30 to 60 minutes in comparison with control)”. It also gave an ED50 (dd-male mice [4]) of 18.4 mg/kg.

For `CN1CCN(CCCC(=O)c2ccc(F)cc2)Cc2ccccc2C1c1ccccc1` (stereo not drawn) [Compound I-c, 5-[3-(p-fluorobenzoyl)propyl]-1,2,3,4,5,6-hexahydro-1-phenyl-2-methyl-2,5-benzodiazocine], the “Sleep Incrementing Action” value (dd-type male mice [1]; oral dosage 100 mg/Kg) was “+++ (sleeping time was extended by 60 minutes or more in comparison with control)”, the “Antipyretic Action” value (Wister type male rats; [5]) was “++ (showing decrease of 1° to 2 °C and obtaining at least one result of a notifiable difference of P<1%)” and the LD50 at 168 h (Acute Toxity, rat; [6]) was 23.8 mg/kg. For the same molecule, the LD50 at 168 h (Acute Toxity, rat; oral dosage, 7 days) was > 4000 mg/kg, the ED50 (dd-male mice [2]) was 5.7 mg/kg and the LD50 at 168 h (Acute Toxity, mouse; [6]) was 29 mg/kg. The LD50 at 168 h (Acute Toxity, mouse; [7]) was 208 mg/kg, the LD50 at 168 h (Acute Toxity, mouse; oral dosage, 7 days) was 1700 mg/kg and the “Sleep Incrementing Action” value (dd-type male mice [3]; in abdominal cavity 50 mg/Kg) was “+++ (sleeping time was extended by 60 minutes or more in comparison with control)”. For the same molecule, the ED50 (dd-male mice [4]) was 44.2 mg/kg.

With `c1ccc(C2NCCN(CC3CC3)Cc3ccccc32)cc1` (stereo not drawn) [Compound I-d, 5-cyclopropylmethyl-1,2,3,4,5,6-hexahydro-1-phenyl-2,5-benzodiazocine] the “Sleep Incrementing Action” value (dd-type male mice [1]; oral dosage 100 mg/Kg) was “-- (sleeping time was shortened by 30 to 60 minutes in comparison with control)”, the “Antipyretic Action” value (Wister type male rats; [5]) was “++ (showing decrease of 1° to 2 °C and obtaining at least one result of a notifiable difference of P<1%)” and the LD50 at 168 h (Acute Toxity, rat; [6]) was 17.8 mg/kg. The LD50 at 168 h (Acute Toxity, rat; oral dosage, 7 days) was 485 mg/kg, the ED50 (dd-male mice [2]) was 13.5 mg/kg and the LD50 at 168 h (Acute Toxity, mouse; [6]) was 18 mg/kg. The LD50 at 168 h (Acute Toxity, mouse; [7]) was 51.6 mg/kg, the LD50 at 168 h (Acute Toxity, mouse; oral dosage, 7 days) was 215 mg/kg and the “Sleep Incrementing Action” value (dd-type male mice [3]; in abdominal cavity 50 mg/Kg) was “-- (sleeping time was shortened by 30 to 60 minutes in comparison with control)”. For the same molecule, the ED50 (dd-male mice [4]) was 17.1 mg/kg.
